From PubChem BioAssay (NCI)
Values joined by “and” are separate entries in the source; they are usually repeats but may differ in a detail not shown here. Equal entries are not always repeated.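 The compound was tested at five concentrations on cells cultured in 96-well plates, with a 48-hour exposure period. Abbreviation: GI50, concentration required for 50% inhibition of growth. TGI: total growth inhibition.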

Columns and labels:
Assay in all cases: NCI tumour cell line growth inhibition, 48 h
HS 578T breast = system: HS 578T breast
NCI-H522 lung = system: NCI-H522 lung
A549 NSCLC = system: A549 NSCLC
IGROV1 ovarian = system: IGROV1 ovarian
HL-60(TB) leukemia = system: HL-60(TB) leukemia
TK-10 renal = system: TK-10 renal
HCT-116 colon = system: HCT-116 colon
T-47D breast = system: T-47D breast
EKVX NSCLC = system: EKVX NSCLC
SW-620 colon = system: SW-620 colon

Compound | TGI (HS 578T breast) | TGI (NCI-H522 lung) | TGI (A549 NSCLC) | TGI (IGROV1 ovarian) | TGI (HL-60(TB) leukemia) | TGI (TK-10 renal) | TGI (HCT-116 colon) | TGI (T-47D breast) | TGI (EKVX NSCLC) | GI50 (HS 578T breast) | GI50 (SW-620 colon) | TGI (SW-620 colon) | GI50 (NCI-H522 lung) | GI50 (A549 NSCLC) | GI50 (IGROV1 ovarian) | GI50 (HL-60(TB) leukemia) | GI50 (TK-10 renal) | GI50 (HCT-116 colon) | GI50 (T-47D breast) | GI50 (EKVX NSCLC)
O=C(O)c1ccc(C(O)(c2ccccc2)c2ccccc2)cc1 | > 100 µM | > 100 µM | > 100 µM | > 100 µM | > 100 µM | > 100 µM | > 100 µM | > 100 µM | > 100 µM |  |  |  |  |  |  |  |  |  |  | 
Cc1cnc2oc3ccc(O)cc3c2c1-c1ccccc1 | 74.4 µM | > 100 µM | > 100 µM | > 100 µM | > 100 µM | > 100 µM | > 100 µM | > 100 µM | 65.5 µM | 19.6 µM | > 100 µM | > 100 µM | 44.9 µM | > 100 µM | 47 µM | > 100 µM | 20.3 µM | > 100 µM | 3.63 µM | 13.8 µM
O=C1CC(c2ccccc2)Cc2nc3ccc(Br)cc3cc21 (centres undefined) | > 94.5 µM | 20.3 µM | > 100 µM | > 100 µM | 0.672 µM | > 100 µM | > 100 µM | > 100 µM | > 100 µM | 0.408 µM | 0.362 µM | > 100 µM | 0.204 µM | 0.378 µM | 0.428 µM | 0.235 µM | 24.2 µM | 0.0509 µM | 5.68 µM | 0.78 µM
O=C(C=P(c1ccccc1)(c1ccccc1)c1ccccc1)CCl | 11 µM | 1.64 µM | 8.14 µM | 5.75 µM | 6.12 µM | 3.12 µM | 1.6 µM | 2.99 µM |  | 1.53 µM | 0.579 µM | 2.12 µM | 0.396 µM | 2.16 µM | 1.97 µM | 1.31 µM | 1.69 µM | 0.416 µM | 1.04 µM | 
C#Cc1cccc(Nc2ncnc3ccc(OCCCCNCCS(C)(=O)=O)cc23)c1 | > 23.2 µM | 7.86 µM | > 25 µM | > 16.3 µM | 11.3 µM | 6.27 µM | > 18.7 µM | > 25 µM | > 25 µM | 8.66 µM | 9.43 µM | > 25 µM | 2.97 µM | 6.43 µM | 2.12 µM | 5.37 µM | 0.238 µM | 6.81 µM | 7.2 µM | 0.161 µM
CCOC(=O)C1=C(C)NC(=O)NC1CN1C(=O)c2ccccc2C1=O (centres undefined) | > 100 µM | > 100 µM | > 100 µM | > 100 µM | > 100 µM | > 100 µM | > 100 µM | > 100 µM | > 100 µM | > 100 µM | > 100 µM | > 100 µM | > 100 µM | > 100 µM | > 100 µM | > 100 µM | > 100 µM | > 100 µM | > 100 µM | > 100 µM
COc1ccc2c3c1OC1C(OC)(OC)C=C[C@@]4(Br)[C@@H](C2)N(CC2CC2)CC[C@]314 (some centres undefined) | > 100 µM | 47.8 µM | > 100 µM | > 100 µM | > 100 µM | > 100 µM | > 100 µM | > 100 µM | > 100 µM |  |  | > 100 µM |  |  |  |  |  |  |  | 
COc1cc(/C=C2\CCC/C(=C\c3ccc(O)c(OC)c3)C2=O)ccc1O | 26.5 µM and 8.93 µM | 3.23 µM and 2.66 µM | 10.8 µM and 5.04 µM | 8.94 µM and 4.53 µM | 10.7 µM and 10.8 µM | 37.2 µM and 11.6 µM | 5 µM and 2.75 µM | 12.2 µM and 7.41 µM | 24.3 µM and 10.8 µM | 2.25 µM | 1.84 µM | 9.59 µM and 3.51 µM | 1.12 µM | 1.96 µM | 1.85 µM | 0.397 µM | 2.8 µM | 1.45 µM | 1.91 µM | 2.1 µM
CN(C)CC(=O)Nc1ccc2ncnc(Nc3ccc(Oc4cccc(C(F)(F)F)c4)c(Cl)c3)c2c1 | 4.58 µM | 5.37 µM | 10.2 µM | 3.03 µM | 4.94 µM | 5.03 µM | 3.03 µM | 3.74 µM | 8.05 µM | 1.78 µM | 1.66 µM | 3.3 µM | 1.8 µM | 2.82 µM | 1.17 µM | 2.09 µM | 1.71 µM | 1.65 µM | 1.31 µM | 1.7 µM
COc1ccc(CCN(CC(=O)N(CC(N)=O)C2CCC[C@@H]2OCc2ccccc2)C(=O)CN(C(=O)CN(CCc2ccc(Cl)cc2)C(=O)CN(C(=O)CN(C)Cc2ccccc2F)[C@H](C)C2CCCCC2)[C@H](C)C2CCCCC2)cc1OC (some centres undefined) | > 50 µM | 32.2 µM | > 50 µM | > 50 µM | 3.24 µM |  | > 50 µM | > 50 µM | > 50 µM | 7.26 µM | 2.56 µM | > 50 µM | 1.52 µM | 1.59 µM | 1.68 µM | 1.21 µM |  | 1.6 µM | 1.43 µM | 2.85 µM
Oc1ccc2c3c1OC1c4[nH]ncc4C[C@H]4[C@@H](C2)N(CC2CC2)CC[C@]314 (some centres undefined) | > 100 µM | > 100 µM | > 100 µM | > 100 µM | > 100 µM | > 100 µM | > 100 µM | > 100 µM | > 100 µM |  |  |  |  |  |  |  |  |  |  | 
COc1cc(/C=C/c2cc(/C=C/c3ccc(O)c(OC)c3)n(C(=O)Nc3ccccc3Cl)n2)ccc1O | 0.89 µM | 0.672 µM | 2.08 µM | 2.39 µM | 0.721 µM | 3.6 µM |  | 2.79 µM | 3.84 µM | 0.114 µM | 0.389 µM | 1.69 µM | 0.112 µM | 0.336 µM | 0.485 µM | 0.282 µM | 0.601 µM |  | 0.821 µM | 0.671 µM
Cn1cc(C2=C(c3cn(-c4ccccc4)c4ccccc34)C(=O)NC2=O)c2ccccc21 | > 25 µM | > 25 µM | > 25 µM | > 25 µM | > 25 µM | > 25 µM | > 25 µM | > 25 µM |  | > 14.6 µM | 9.68 µM | > 25 µM | 6.61 µM | 11.8 µM | 11.7 µM | 8.91 µM | > 25 µM | 11 µM | 7.53 µM | 
C/C(=N\OCC(O)CNCCSCc1ccccc1)c1ccccc1Cl (centres undefined) | 89.5 µM | 52.8 µM | 45.6 µM |  | 50.1 µM | 35.3 µM | 54.7 µM | 48.6 µM | 40.6 µM |  |  | 40.6 µM |  |  |  |  |  |  |  | 
